Laboratory results taken from article PMC7913927, “Leishmanicidal Activity of Betulin Derivatives in Leishmania amazonensis; Effect on Plasma and Mitochondrial Membrane Potential, and Macrophage Nitric Oxide and Superoxide Production” (Microorganisms, 2021).
“And” between values parts separate entries of the source, which are not always exact repeats. Equal values may be shown once. “Also recorded” adds a separate entry of the source. Read-outs that look alike come from different tables or passages of the source.

Legend:
[1] = system: J774.1 macrophages, healthy or infected with LTB0016, VE98MR or VE2000MM; test: Nitric oxide (NO) production, Griess reaction; assay type: cell-based, murine; details: non-infected and infected macrophages; 48 h; 18: 1 and 2 µM; 22: 2 and 4 µM
Experimental: Following a previously described procedure, infected and uninfected macrophage cultures were treated with test compounds to analyze their effect in Leishmania host cell nitric oxide (NO) production. J774.1 macrophages, at the third day of growth, were collected and seeded in flat-bottom 96-well culture plates, at a density of 1 × 10^6 cells mL^−1 (2 × 10^5 macrophages/well), in 200 µL of RPMIc. The plates were incubated for 2 h; once the supernatant was discarded, the medium was replaced with 200 µL of RPMIc mixed with infectious promastigotes in the stationary phase of growth (1 × 10^7 parasites/mL, 2 × 10^6 parasites/well), so that the ratio macrophage: parasites was 1:10 [41]. The plates were then incubated for 4 h, the medium was replaced with fresh RPMIc and the test compounds were applied, according to the different treatment groups. The plates were kept in incubation for 48 h, at 37 °C and 5% CO2.
From the culture supernatants, 50-µL aliquots were recovered and transferred to a new 96-well plate to perform the Griess reaction, 50 µL of Solution 1 [1% sulfanilamide dissolved in 2.5% phosphoric acid] was added, incubated for 5 min at RT and in the dark. […] Finally, the colorimetric reading was performed at 550 nm. […] Levels of NO2^− (expressed as µM of NO2^−) were calculated from a calibration curve constructed with increasing concentrations of sodium nitrite (NaNO2). […]

[2] = system: VE98MR intracellular amastigotes in J774.1 macrophages; test: Macrophage-amastigote model, patient isolate VE98MR; assay type: cell-based, Leishmania amazonensis; details: for Regresion (GraphPad 6) of %Control vs dose (50% inhibitory concentration) / Growth (%) Exp1 %Control / Growth (%) Exp1 A/100MØ / Growth (%) Exp1 A/MØ / Growth (%) Exp1 Infección / Growth (%) Exp2 %Control / Growth (%) Exp2 A/100MØ / Growth (%) Exp2 A/MØ / Growth (%) Exp2 Infección / Growth (%) Exp3 %Control / Growth (%) Exp3 A/100MØ / Growth (%) Exp3 A/MØ / Growth (%) Exp3 Infección / Average A/100MØ: VE98MR; for Regresion (GraphPad 6) of %Control vs dose (50% inhibitory concentration): unit from Dose head; for Average A/100MØ: average of Exp1-3
Experimental: We used a previously described methodology, with some modifications. Macrophage monolayers, grown in RMPIc medium, for 3 days, were detached from the bottom of the culture chamber, by physical treatment (low temperature and light strokes). Obtained macrophages were seeded in flat-bottom 96-well culture plates, at a density of 2 × 10^5 cells mL^−1 (40,000 macrophages/well), in a final volume of 200 µL. Plates were incubated for 2 h, and the supernatant was discarded to remove non-adhered macrophages. Medium was replaced with stationary-phase promastigotes suspended in 200 µL of RPMIc (2 × 10^6 parasites mL^−1, 400,000 parasites/well), at a macrophage: parasite ratio 1:10 [40]. The plates were incubated for 4 h. Afterwards the medium was replaced with fresh RPMIc and increasing concentrations of compounds or drugs tested were applied, in volumes of 2 µL, according to the different treatment groups. Plates were kept for 72 h, at 37 °C and 5% CO2. The medium was discarded and the wells were washed twice with PBS. Next, a Giemsa staining was performed in situ. It consisted of adding 200 µL of methanol/well, incubating for 5 min, discarding the fixative, and letting it dry at room temperature. Later, the Giemsa solution (10% in PBS w/v, 200 µL/well) was added, incubated for 10 min, and washed with PBS, allowing it to dry. Finally, the bottom of the plates was detached by percussion and the circular bottoms (wells) were fixed to slides with Permount synthetic resin, for later evaluation (Alcazar W., manuscript in preparation). Cell counting was performed with a 100× immersion objective. A minimum of 200 random macrophages were examined. The percentage of infected macrophages (% infection) and the average number of amastigotes present in infected macrophages (amastigotes) were determined. […] The infection rate represents the number of intracellular amastigotes per 100 macrophages evaluated. Additionally, the GI50 for the decrease in the infection rate was calculated. At least three independent experiments were performed. The effect of amphotericin-B (AmB) [Sigma-Aldrich, (St. Louis, MO, USA)] was included as positive control of the assay.

C=C(C)C1CCC2(C=NO)CCC3(C)C(CCC4C5(C)CCC(=NO)C(C)(C)C5CCC43C)C12 (centres unmarked) [Compound 18]
Nitric oxide (NO) production by macrophages [1]: neither 18 nor 22 induced nitric oxide production in infected macrophages; also recorded: not capable of inducing NO production in any of the strains tested; also recorded: not capable of inducing NO production for any of the strains tested | SI (CC50/GI50) VE98MR ([2]; J774.1 CC50 / intracellular amastigote GI50, Table 2): 27.32 | GI50 ([2]; VE98MR intracellular amastigotes, read-out: GI50 (µM) Experiment 1 Regresion): 0.65 µM | GI50 ([2]; VE98MR intracellular amastigotes, read-out: GI50 (µM) Experiment 2 Regresion): 1.09 µM | GI50 ([2]; VE98MR intracellular amastigotes, read-out: GI50 (µM) Experiment 3 Regresion): 0.89 µM | Regresion (GraphPad 6) of %Control vs dose (50% inhibitory concentration) ([2]; Exp1): 0.65 µM | Regresion (GraphPad 6) of %Control vs dose (50% inhibitory concentration) ([2]; Exp2): 1.09 µM | Regresion (GraphPad 6) of %Control vs dose (50% inhibitory concentration) ([2]; Exp3): 0.89 µM | Growth (%) Exp1 %Control ([2]; dose 0.10 µM, Exp1): 72.90% | Growth (%) Exp1 A/100MØ ([2]; dose 0.10 µM, Exp1): 117.33 | Growth (%) Exp1 A/MØ ([2]; dose 0.10 µM, Exp1): 2.20 | Growth (%) Exp1 Infección ([2]; dose 0.10 µM, Exp1): 53.33% | Growth (%) Exp2 %Control ([2]; dose 0.10 µM, Exp2): 77.33% | Growth (%) Exp2 A/100MØ ([2]; dose 0.10 µM, Exp2): 159.61 | Growth (%) Exp2 A/MØ ([2]; dose 0.10 µM, Exp2): 2.67 | Growth (%) Exp2 Infección ([2]; dose 0.10 µM, Exp2): 59.78% | Growth (%) Exp3 %Control ([2]; dose 0.10 µM, Exp3): 82.84% | Growth (%) Exp3 A/100MØ ([2]; dose 0.10 µM, Exp3): 205.27 | Growth (%) Exp3 A/MØ ([2]; dose 0.10 µM, Exp3): 3.68 | Growth (%) Exp3 Infección ([2]; dose 0.10 µM, Exp3): 55.78% | Average A/100MØ ([2]; dose 0.10 µM): 160.74 | Growth (%) Exp1 %Control ([2]; dose 0.50 µM, Exp1): 57.32% | Growth (%) Exp1 A/100MØ ([2]; dose 0.50 µM, Exp1): 92.25 | Growth (%) Exp1 A/MØ ([2]; dose 0.50 µM, Exp1): 2.05 | Growth (%) Exp1 Infección ([2]; dose 0.50 µM, Exp1): 45.00% | Growth (%) Exp2 %Control ([2]; dose 0.50 µM, Exp2): 61.05% | Growth (%) Exp2 A/100MØ ([2]; dose 0.50 µM, Exp2): 125.99 | Growth (%) Exp2 A/MØ ([2]; dose 0.50 µM, Exp2): 2.20 | Growth (%) Exp2 Infección ([2]; dose 0.50 µM, Exp2): 57.27% | Growth (%) Exp3 %Control ([2]; dose 0.50 µM, Exp3): 73.43% | Growth (%) Exp3 A/100MØ ([2]; dose 0.50 µM, Exp3): 181.96 | Growth (%) Exp3 A/MØ ([2]; dose 0.50 µM, Exp3): 3.24 | Growth (%) Exp3 Infección ([2]; dose 0.50 µM, Exp3): 56.16% | Average A/100MØ ([2]; dose 0.50 µM): 133.40 | Growth (%) Exp1 %Control ([2]; dose 1.00 µM, Exp1): 48.73% | Growth (%) Exp1 A/100MØ ([2]; dose 1.00 µM, Exp1): 78.42 | Growth (%) Exp1 A/MØ ([2]; dose 1.00 µM, Exp1): 2.26 | Growth (%) Exp1 Infección ([2]; dose 1.00 µM, Exp1): 34.70% | Growth (%) Exp2 %Control ([2]; dose 1.00 µM, Exp2): 59.91% | Growth (%) Exp2 A/100MØ ([2]; dose 1.00 µM, Exp2): 123.65 | Growth (%) Exp2 A/MØ ([2]; dose 1.00 µM, Exp2): 2.80 | Growth (%) Exp2 Infección ([2]; dose 1.00 µM, Exp2): 44.16% | Growth (%) Exp3 %Control ([2]; dose 1.00 µM, Exp3): 42.96% | Growth (%) Exp3 A/100MØ ([2]; dose 1.00 µM, Exp3): 106.46 | Growth (%) Exp3 A/MØ ([2]; dose 1.00 µM, Exp3): 2.36 | Growth (%) Exp3 Infección ([2]; dose 1.00 µM, Exp3): 45.11% | Average A/100MØ ([2]; dose 1.00 µM): 102.84 | Growth (%) Exp1 %Control ([2]; dose 5.00 µM, Exp1): 16.08% | Growth (%) Exp1 A/100MØ ([2]; dose 5.00 µM, Exp1): 25.87 | Growth (%) Exp1 A/MØ ([2]; dose 5.00 µM, Exp1): 1.60 | Growth (%) Exp1 Infección ([2]; dose 5.00 µM, Exp1): 16.17% | Growth (%) Exp2 %Control ([2]; dose 5.00 µM, Exp2): 28.34% | Growth (%) Exp2 A/100MØ ([2]; dose 5.00 µM, Exp2): 58.49 | Growth (%) Exp2 A/MØ ([2]; dose 5.00 µM, Exp2): 2.35 | Growth (%) Exp2 Infección ([2]; dose 5.00 µM, Exp2): 24.89% | Growth (%) Exp3 %Control ([2]; dose 5.00 µM, Exp3): 8.53% | Growth (%) Exp3 A/100MØ ([2]; dose 5.00 µM, Exp3): 21.14 | Growth (%) Exp3 A/MØ ([2]; dose 5.00 µM, Exp3): 1.13 | Growth (%) Exp3 Infección ([2]; dose 5.00 µM, Exp3): 18.71% | Average A/100MØ ([2]; dose 5.00 µM): 35.17 | Growth (%) Exp1 %Control ([2]; dose 10.00 µM, Exp1): 3.99% | Growth (%) Exp1 A/100MØ ([2]; dose 10.00 µM, Exp1): 6.42 | Growth (%) Exp1 A/MØ ([2]; dose 10.00 µM, Exp1): 1.33 | Growth (%) Exp1 Infección ([2]; dose 10.00 µM, Exp1): 4.83% | Growth (%) Exp2 %Control ([2]; dose 10.00 µM, Exp2): 9.85% | Growth (%) Exp2 A/100MØ ([2]; dose 10.00 µM, Exp2): 20.33 | Growth (%) Exp2 A/MØ ([2]; dose 10.00 µM, Exp2): 1.50 | Growth (%) Exp2 Infección ([2]; dose 10.00 µM, Exp2): 13.55% | Growth (%) Exp3 %Control ([2]; dose 10.00 µM, Exp3): 11.25% | Growth (%) Exp3 A/100MØ ([2]; dose 10.00 µM, Exp3): 27.88 | Growth (%) Exp3 A/MØ ([2]; dose 10.00 µM, Exp3): 1.35 | Growth (%) Exp3 Infección ([2]; dose 10.00 µM, Exp3): 20.65% | Average A/100MØ ([2]; dose 10.00 µM): 18.21 | GI50 ([2]; intracellular amastigotes, Supplementary Materials II, read-out: GI50 (µM) VE98MR, mean of three experiments): 0.877 µM and 0.88 µM
